From article PMC3679022, “A Cancer Specific Cell-Penetrating Peptide, BR2, for the Efficient Delivery of an scFv into Cancer Cells” (PLoS ONE, 2013)

Tests used:
[1] = test system: normal cells (HaCat, BJ and NIH 3T3); assay: Flow cytometry of FITC-labeled peptide uptake, normal cells; assay type: cell-based, human, mouse; settings: FITC-labeled peptide 10 µM, 30 min, 37°C, trypsin 1 mg/ml 10 min before FACS, 10,000 events
Description: To evaluate the internalization of FITC-labeled peptides, HeLa cells were seeded onto 12-well plates at a density of 2×10^5 cells per well and incubated for 24 h. FITC-labeled peptides, at various concentrations ranging from […], were then incubated with the cells for 30 min at 37°C. To compare the cellular uptake of peptides, cancer and normal cells were treated with FITC-labeled peptides (each, 10 µM) and incubated for 30 min at 37°C. Following the incubation, cells were washed three times with ice-cold PBS to remove excess extracellular complexes. Next, the cells were treated with trypsin (1 mg/ml) for 10 min to remove any remaining peptides bound to the cell surface. After trypsinization, the cells were collected by centrifugation (1,000×g for 5 min), resuspended with 500 µl ice-cold 2% FBS/PBS containing propidium iodide (PI), and then immediately analyzed (10,000 events/sample) by fluorescence activated cell sorting (FACS).
For all of these experimental conditions, flow cytometry analyses were performed with live cells using a Becton Dickinson FACSCalibur flow cytometer (BD Biosciences, San Diego, CA). In each case, the fluorescence of 10,000 viable cells was acquired. Viable cells were gated based on a sideward and forward scatter. […] The statistical significance was evaluated by Student’s t-test at a 95% confidence interval. […]

[2] = test system: HCT116 cells (K-ras mutated cells); assay: Cell proliferation assay (MTT); assay type: cell-based, human; set-up: dose or concentration left out as unconfirmed; settings: same concentrations as fusion proteins (Fig. S4:), 24 h
Description: To assess the anti-proliferative activity of peptides and anti-Ras scFv fusion proteins, HCT116 cells (K-ras mutated cells) were seeded in 96-well plates at a density of 2×10^4 cells/well in 100 µL of DMEM supplemented with 10% FBS and cultured for 24 h at 37°C. […] Cell viability was measured with the 3-(4,5-dimethylthiazol-2-yl)-2,5-diphenyl tetrazolium bromide (MTT) assay using the CellTiter 96® Non-radioactive Cell Proliferation assay kit (Promega, Madison, WI) according to the manufacturer’s instructions. The absorbance of the solution was measured at 570 nm using a Microplate Reader (Bio-Rad). Cell viability was expressed as the percentage of viable cells treated with scFv or peptide-scFv fusion proteins compared to the PBS-treated control (100%). All experiments were done in triplicate.
Figure 4 Intracellular uptake of peptides and anti-Ras scFv fusion proteins and their anti-proliferative activity. […] (B) Protein uptake was analyzed by Western blotting of fractionated lysates from HCT116 cells treated with PBS, anti-Ras scFv, BR2- or Tat-scFv fusion protein (each, 2 µM) at 37°C for 2 h. […] Cell proliferation was determined using the MTT assay. […]
HCT116 cells were seeded in 96-well plates at a density of 2×10^4 cells/well in 100 μl of DMEM supplemented with 10% FBS and cultured for 24 h at 37°C. […] The absorbance of the solution was measured at 570 nm using a Microplate Reader (Bio-Rad). […]

RAGLQFPVGRLLRRLLR [BR2] was tested, and the “percentage of fluorescence-positive cells (cells that internalized peptide)” value [1] was 23–34% and the “anti-proliferative activity of peptide alone” value [2] was “did not show any detectable inhibitions”.
